Reference: ChEMBL document CHEMBL1153574, “Novel topoisomerase I-targeting antitumor agents synthesized from the N,N,N-trimethylammonium derivative of ARC-111, 5H-2,3-dimethoxy-8,9-methylenedioxy-5-[(2-N,N,N-trimethylammonium)ethyl]dibenzo[c,h][1,6]naphthyridin-6-one iodide” (Eur J Med Chem, 2009)

Test system: not listed separately
Assay: Cytotoxicity against multidrug resistant human KBV1 cells overexpressing MDR1 after 4 days by MTT assay
Format: functional, cell-based
Conditions: KB-V1, 96 h

Row | Compound | IC50 [nM]
1 | COc1cc2c(=O)n(CCn3ccnc3)c3c4cc5c(cc4ncc3c2cc1OC)OCO5 | 1800
2 | COc1cc2c(=O)n(CCN(C)C)c3c4cc5c(cc4ncc3c2cc1OC)OCO5 | 5
3 | COc1cc2c(=O)n(CCO)c3c4cc5c(cc4ncc3c2cc1OC)OCO5 | 40
4 | COc1cc2c(=O)n(CCNC3CC3)c3c4cc5c(cc4ncc3c2cc1OC)OCO5 | 40
5 | COc1cc2c(=O)n(CCOC(=O)CN(C)C)c3c4cc5c(cc4ncc3c2cc1OC)OCO5 | 35
6 | COc1cc2c(=O)n(CCNC(CO)CO)c3c4cc5c(cc4ncc3c2cc1OC)OCO5 | 2000
7 | COc1cc2c(=O)n(CCN(C)CCN(C)C)c3c4cc5c(cc4ncc3c2cc1OC)OCO5 | 600

Test system: P388
Assay: Cytotoxicity against mouse P388 cells after 4 days by MTT assay
Format: functional, cell-based
Conditions: P388, 96 h

Row | Compound | IC50 [nM]
8 | COc1cc2c(=O)n(CCn3ccnc3)c3c4cc5c(cc4ncc3c2cc1OC)OCO5 | 200
9 | COc1cc2c(=O)n(CCO)c3c4cc5c(cc4ncc3c2cc1OC)OCO5 | 30
10 | COc1cc2c(=O)n(CCNC3CC3)c3c4cc5c(cc4ncc3c2cc1OC)OCO5 | 9
11 | COc1cc2c(=O)n(CCOC(=O)CN(C)C)c3c4cc5c(cc4ncc3c2cc1OC)OCO5 | 27
12 | COc1cc2c(=O)n(CCNC(CO)CO)c3c4cc5c(cc4ncc3c2cc1OC)OCO5 | 80
13 | COc1cc2c(=O)n(CCN(C)CCN(C)C)c3c4cc5c(cc4ncc3c2cc1OC)OCO5 | 35

Test system: not listed separately
Assay: Cytotoxicity against human KB3-1 cells after 4 days after MTT assay
Format: functional, cell-based
Conditions: KB 3-1, 96 h

Row | Compound | IC50 [nM]
14 | COc1cc2c(=O)n(CCn3ccnc3)c3c4cc5c(cc4ncc3c2cc1OC)OCO5 | 150
15 | COc1cc2c(=O)n(CCN(C)C)c3c4cc5c(cc4ncc3c2cc1OC)OCO5 | 5
16 | COc1cc2c(=O)n(CCO)c3c4cc5c(cc4ncc3c2cc1OC)OCO5 | 27
17 | COc1cc2c(=O)n(CCNC3CC3)c3c4cc5c(cc4ncc3c2cc1OC)OCO5 | 4
18 | COc1cc2c(=O)n(CCOC(=O)CN(C)C)c3c4cc5c(cc4ncc3c2cc1OC)OCO5 | 32
19 | COc1cc2c(=O)n(CCNC(CO)CO)c3c4cc5c(cc4ncc3c2cc1OC)OCO5 | 26
20 | COc1cc2c(=O)n(CCN(C)CCN(C)C)c3c4cc5c(cc4ncc3c2cc1OC)OCO5 | 50

Biological target: T1, DNA topoisomerase 1 (Homo sapiens) (UniProt P11387)
T1 sequence (whole entry): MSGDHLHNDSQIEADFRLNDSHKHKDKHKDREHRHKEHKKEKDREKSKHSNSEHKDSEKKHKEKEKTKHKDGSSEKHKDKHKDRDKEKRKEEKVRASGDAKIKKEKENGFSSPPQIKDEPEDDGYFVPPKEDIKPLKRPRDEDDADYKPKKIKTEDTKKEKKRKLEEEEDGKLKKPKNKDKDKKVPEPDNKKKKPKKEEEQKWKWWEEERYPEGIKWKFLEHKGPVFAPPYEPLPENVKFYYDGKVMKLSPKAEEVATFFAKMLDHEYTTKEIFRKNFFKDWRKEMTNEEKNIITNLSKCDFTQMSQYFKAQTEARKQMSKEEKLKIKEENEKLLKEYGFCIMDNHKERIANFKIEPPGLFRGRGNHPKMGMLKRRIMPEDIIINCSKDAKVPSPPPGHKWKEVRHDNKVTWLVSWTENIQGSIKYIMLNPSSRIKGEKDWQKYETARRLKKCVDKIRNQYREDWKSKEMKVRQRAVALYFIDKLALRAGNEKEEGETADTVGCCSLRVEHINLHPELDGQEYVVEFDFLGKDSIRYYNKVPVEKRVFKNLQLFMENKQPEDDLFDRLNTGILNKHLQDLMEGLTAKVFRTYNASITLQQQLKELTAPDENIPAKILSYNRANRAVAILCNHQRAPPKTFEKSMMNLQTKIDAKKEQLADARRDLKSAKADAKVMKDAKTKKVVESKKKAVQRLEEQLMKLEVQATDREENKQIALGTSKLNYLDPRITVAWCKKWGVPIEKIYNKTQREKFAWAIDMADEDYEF
Assay: Effect on human topoisomerase 1 expressed in Sf9 insect cells assessed as effective concentration required for 10% cleavage of plasmid DNA relative to topotecan
Conditions: not given

Row | Compound | Activity
21 | COc1cc2c(=O)n(CCn3ccnc3)c3c4cc5c(cc4ncc3c2cc1OC)OCO5 | 2.3
22 | COc1cc2c(=O)n(CCO)c3c4cc5c(cc4ncc3c2cc1OC)OCO5 | 4.7
23 | COc1cc2c(=O)n(CCNC3CC3)c3c4cc5c(cc4ncc3c2cc1OC)OCO5 | 0.3
24 | COc1cc2c(=O)n(CCN(C)CCN(C)C)c3c4cc5c(cc4ncc3c2cc1OC)OCO5 | 0.7

The next lines start with the values.

Row | Activity | Compound
25 | 0.3 | COc1cc2c(=O)n(CCN(C)C)c3c4cc5c(cc4ncc3c2cc1OC)OCO5
26 | 0.3 | COc1cc2c(=O)n(CCOC(=O)CN(C)C)c3c4cc5c(cc4ncc3c2cc1OC)OCO5
27 | 0.2 | COc1cc2c(=O)n(CCNC(CO)CO)c3c4cc5c(cc4ncc3c2cc1OC)OCO5

Test system: not listed separately
Assay: Cytotoxicity against human CPT-K5 cells after 4 days by MTT assay
Format: functional, cell-based
Conditions: CPT-K5, 96 h

Row | Compound | IC50 [nM]
28 | COc1cc2c(=O)n(CCn3ccnc3)c3c4cc5c(cc4ncc3c2cc1OC)OCO5 | > 10000
29 | COc1cc2c(=O)n(CCO)c3c4cc5c(cc4ncc3c2cc1OC)OCO5 | > 10000
30 | COc1cc2c(=O)n(CCNC3CC3)c3c4cc5c(cc4ncc3c2cc1OC)OCO5 | 300
31 | COc1cc2c(=O)n(CCOC(=O)CN(C)C)c3c4cc5c(cc4ncc3c2cc1OC)OCO5 | 4600
32 | COc1cc2c(=O)n(CCNC(CO)CO)c3c4cc5c(cc4ncc3c2cc1OC)OCO5 | > 10000
33 | COc1cc2c(=O)n(CCN(C)CCN(C)C)c3c4cc5c(cc4ncc3c2cc1OC)OCO5 | 2200

Test system: not listed separately
Assay: Cytotoxicity against human RPMI8402 cells after 4 days by MTT assay
Format: functional, cell-based
Conditions: RPMI 8402, 96 h

Row | Compound | IC50 [nM]
34 | COc1cc2c(=O)n(CCn3ccnc3)c3c4cc5c(cc4ncc3c2cc1OC)OCO5 | 210
35 | COc1cc2c(=O)n(CCO)c3c4cc5c(cc4ncc3c2cc1OC)OCO5 | 30
36 | COc1cc2c(=O)n(CCNC3CC3)c3c4cc5c(cc4ncc3c2cc1OC)OCO5 | 10
37 | COc1cc2c(=O)n(CCOC(=O)CN(C)C)c3c4cc5c(cc4ncc3c2cc1OC)OCO5 | 30
38 | COc1cc2c(=O)n(CCNC(CO)CO)c3c4cc5c(cc4ncc3c2cc1OC)OCO5 | 54
39 | COc1cc2c(=O)n(CCN(C)CCN(C)C)c3c4cc5c(cc4ncc3c2cc1OC)OCO5 | 45

Test system: not listed separately
Assay: Cytotoxicity against mouse P388/CPT45 cells after 4 days by MTT assay
Format: functional, cell-based
Conditions: P388CPT45, 96 h

Row | Compound | IC50 [nM]
40 | COc1cc2c(=O)n(CCn3ccnc3)c3c4cc5c(cc4ncc3c2cc1OC)OCO5 | > 10000
41 | COc1cc2c(=O)n(CCO)c3c4cc5c(cc4ncc3c2cc1OC)OCO5 | 900
42 | COc1cc2c(=O)n(CCNC3CC3)c3c4cc5c(cc4ncc3c2cc1OC)OCO5 | 110
43 | COc1cc2c(=O)n(CCOC(=O)CN(C)C)c3c4cc5c(cc4ncc3c2cc1OC)OCO5 | 390
44 | COc1cc2c(=O)n(CCN(C)CCN(C)C)c3c4cc5c(cc4ncc3c2cc1OC)OCO5 | 70

Test system: not listed separately
Assay: Cytotoxicity against multidrug resistant human KBH5.0 cells overexpressing BCRP after 4 days by MTT assay
Format: functional, cell-based
Conditions: KBH5.0 cell, 96 h

Row | Compound | IC50 [nM]
45 | COc1cc2c(=O)n(CCn3ccnc3)c3c4cc5c(cc4ncc3c2cc1OC)OCO5 | 580
46 | COc1cc2c(=O)n(CCO)c3c4cc5c(cc4ncc3c2cc1OC)OCO5 | 40
47 | COc1cc2c(=O)n(CCNC3CC3)c3c4cc5c(cc4ncc3c2cc1OC)OCO5 | 8
48 | COc1cc2c(=O)n(CCOC(=O)CN(C)C)c3c4cc5c(cc4ncc3c2cc1OC)OCO5 | 50
49 | COc1cc2c(=O)n(CCNC(CO)CO)c3c4cc5c(cc4ncc3c2cc1OC)OCO5 | 750
50 | COc1cc2c(=O)n(CCN(C)CCN(C)C)c3c4cc5c(cc4ncc3c2cc1OC)OCO5 | 210
